Test results published in US12256733B2, “Antimicrobial mixture containing 4-(3-ethoxy-4-hydroxyphenyl)butan-2-one and an acid or silver-based compound, and cosmetic composition containing same” (L'OREAL, priority 2018, dated 2025).
One block for each compound: values may come before it.

What was measured:
Assay in all cases: Synergistic antimicrobial activity as MIC, 96-well microplate, optical density at 620 nm
Assay type in all cases: cell-based
[1] = test system: Enterococcus faecalis ATCC 33186
Source text: (§1) 1] with: • MIC of A with B: minimum concentration of product A in the combination A+B which makes it possible to obtain an inhibitory effect; • MIC of B with A: minimum concentration of product B in the combination A+B which makes it possible to obtain an inhibitory effect; • MIC of A: minimum inhibitory concentration of product A alone; • MIC of B: minimum inhibitory concentration of product B alone. This formula was described for the first time in the article by F. C. Kull, P. C. Eisman, H. D. Sylwestrowka, and R. L. Mayer, Applied Microbiology 9:538-541, 1961.
The microbial strain Enterococcus faecalis ATCC 33186 and a double-concentration BHI (Brain Heart Infusion) broth liquid culture medium were used.
(§2) A 96-well microplate at an incubation temperature of 32.5° C. is used.
(§3) The incubation time of the microplate is: • from 24 to 30 h under aerobic conditions for microbial Aspergillus niger ATCC 6275; • from 18 to 24 h under aerobic conditions for Candida albicans ATCC 10231, Pseudomonas aeruginosa ATCC 9027 and Staphylococcus aureus ATCC 6538; • from 24 to 48 h under aerobic conditions for Enterococcus faecalis ATCC 33186. Tests
(§4) A 10% (weight/volume) stock solution was prepared by mixing 1 g of compound in 9 ml of aqueous 1‰ agar solution. Successive dilutions were made with the 1‰ agar solution.
(§5) 50 μl of each of the daughter solutions obtained containing compound A or B are added to the microplate wells. 100 μl of Sabouraud liquid nutrient broth inoculated at double concentration with the Aspergillus niger strain and 50 μl of aqueous 1‰ agar solution are also added thereto.
(§6) 50 μl of each of the daughter solutions obtained containing compound A and 50 μl of each of the daughter solutions obtained containing compound B are added to the microplate wells. 100 μl of Sabouraud liquid nutrient broth inoculated at double concentration with the strain Aspergillus niger are also added thereto.
(§7) A positive microbial growth control was also prepared. The positive microbial growth control corresponds to a mixture of 100 μl of aqueous 1‰ agar solution with 100 μl of Sabouraud liquid nutrient broth inoculated at double concentration with the strain Aspergillus niger in the absence of compounds A and B.
(§8) An absorbance control was performed in parallel on compounds A and B alone. This control corresponds to 100 μl of double concentration sterile Sabouraud liquid nutrient broth+100 μl of double concentration compound A or B.
(§9) In the three cases (absorbance control, growth control and test), the final volume present in each of the microplate wells is 200 μl.
(§10) The test as described above (tests, absorbance control and growth control) was performed again to test the combination A+B on the following strains Enterococcus faecalis, Staphylococcus aureus, Pseudomonas aeruginosa, Candida albicans, where appropriate.

[2] = test system: Candida albicans ATCC 10231
Source text: as §1
(§11) When the FIC index value is less than or equal to 1, it is considered that the combination of test compounds has a synergistic effect.
The microbial strain Candida albicans ATCC 10231, and a double-concentration Sabouraud broth liquid culture medium were used (i.e. a mixture of 5 g of Phytagel+0.6 g Tween 40+60 g of Sabouraud broth).
as §2, §3, §4, §5, §6, §7, §8, §9, §10

[3] = test system: Staphylococcus aureus ATCC 6538
Source text: as §1, §11
The microbial strain Staphylococcus aureus ATCC 6538 and a double-concentration nutrient broth liquid culture medium were used.
as §2, §3, §4, §5, §6, §7, §8, §9
(§12) In the two cases (test and control), the inoculum represents the concentration of the Aspergillus niger strain present in the final volume of the wells (200 μl) and is between 2 and 6×10^5 cfu/ml of Aspergillus niger.
as §10
The following results were obtained with the compound B1=trisodium salt of ethylenediaminedisuccinic acid (as an aqueous solution at 30% by weight): sold under the name Natrlquest E30 by the company Innospec Active Chemicals.

[4] = test system: Aspergillus niger ATCC 6275
Source text: as §1
The microbial strain Aspergillus niger ATCC 6275, and a double-concentration Sabouraud broth liquid culture medium supplemented with polyoxyethylenated (20 OE) sorbitan monopalmitate (Tween 40 from Croda) and Phytagel© BioReagent were used (i.e. a mixture of 5 g of Phytagel+0.6 g of Tween 40+60 g of Sabouraud broth).
as §2, §3, §4, §5, §6, §7, §8, §9, §12

[5] = 0.0625% A alone (active material weight %)
[6] = first concentration with growth <= 25%

- MIC of product alone [1, 6]: 0.5%
- % MIC of A alone [2, 6]: 0.5%
- % MIC of A alone [3, 6]: 1%
- % MIC of A alone [4, 6]: 0.1%
Compound: CCOc1cc(CCC(C)=O)ccc1O [A, 4-(3-ethoxy-4-hydroxyphenyl)butan-2-one]
- microbial growth percentage [1, 5]: 31%
- microbial growth percentage ([1]; 0.125% A alone): 36%
- microbial growth percentage ([1]; 0.25% A alone): 39%
- microbial growth percentage ([1]; 0.5% A alone): −9%
- microbial growth percentage [2, 5]: 76%
- microbial growth percentage ([2]; 0.125% A alone): 64%
- microbial growth percentage ([2]; 0.25% A alone): 36%
- microbial growth percentage ([2]; 0.5% A alone): 5%
- microbial growth percentage [3, 5]: 76%
- microbial growth percentage ([3]; 0.125% A alone): 72%
- microbial growth percentage ([3]; 0.25% A alone): 71%
- microbial growth percentage ([3]; 0.5% A alone): 40%
- microbial growth percentage ([3]; 1% A alone): −23%
- microbial growth percentage ([4]; 0.025% A alone (weight %)): 44%
- microbial growth percentage ([4]; 0.05% A alone): 32%
- microbial growth percentage ([4]; 0.1% A alone): 13%

- % MIC of B1 alone [3, 6]: 0.6%
Compound: O=C([O-])C[C@H](NCCN[C@@H](CC(=O)[O-])C(=O)O)C(=O)[O-].[Na+].[Na+].[Na+] [B1, trisodium salt of ethylenediaminedisuccinic acid]
- microbial growth percentage ([3]; 0.0375% B1 alone): 97%
- microbial growth percentage ([3]; 0.075% B1 alone): 80%
- microbial growth percentage ([3]; 0.15% B1 alone): 66%
- microbial growth percentage ([3]; 0.3% B1 alone): 37%
- microbial growth percentage ([3]; 0.6% B1 alone): 1%

- % MIC of B2 alone [2, 6]: 0.68%
Compound: CCCCCC1C(O)CCC1CC(=O)[O-].[Na+] (stereo not drawn) [B2, sodium salt of 3-hydroxy-2-pentylcyclopentaneacetic acid]
- microbial growth percentage ([2]; 0.34% B2 alone): 43%
- microbial growth percentage ([2]; 0.68% B2 alone): 6%

Compound: O=C([O-])CNCO.[Na+] [B4, sodium hydroxymethylglycinate]
- microbial growth percentage ([1]; 0.005% B4 alone): 32%
- microbial growth percentage ([1]; 0.01% B4 alone): 11%
- % MIC of B4 alone [1, 6]: 0.1%

Compound: silver citrate hydrate [B3]
- microbial growth percentage ([4]; 0.025% B3 alone): 47%
- microbial growth percentage ([4]; 0.05% B3 alone): 40%
- microbial growth percentage ([4]; 0.1% B3 alone): 9%
- % MIC of B3 alone [4, 6]: 0.1%
